Source: ChEMBL document CHEMBL1201862, “PubChem BioAssay data set” (2004)
Activity calls are given as the source filed them.

Assays:
[1] = target: T1, Adenosylmethionine-8-amino-7-oxononanoate aminotransferase (Mycobacterium tuberculosis, UniProt P9WQ81); test: Mycobacterium tuberculosis BioA enzyme inhibitor Measured in Biochemical System Using Plate Reader - 2163-02_Inhibitor_Dose_CherryPick_Activity.; type: functional, Mycobacterium tuberculosis UT205
T1 sequence (P9WQ81 whole entry): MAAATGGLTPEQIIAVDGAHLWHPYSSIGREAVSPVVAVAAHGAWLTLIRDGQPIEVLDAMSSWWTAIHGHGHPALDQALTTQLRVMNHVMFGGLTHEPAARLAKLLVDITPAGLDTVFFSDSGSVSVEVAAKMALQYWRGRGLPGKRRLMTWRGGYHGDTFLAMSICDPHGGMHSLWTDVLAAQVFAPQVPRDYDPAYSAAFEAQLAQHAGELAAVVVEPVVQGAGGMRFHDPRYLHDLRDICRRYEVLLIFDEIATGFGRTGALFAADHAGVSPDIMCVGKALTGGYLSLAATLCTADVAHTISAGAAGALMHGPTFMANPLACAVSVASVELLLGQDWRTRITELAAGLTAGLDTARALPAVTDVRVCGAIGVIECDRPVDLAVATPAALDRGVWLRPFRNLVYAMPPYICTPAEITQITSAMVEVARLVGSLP

[2] = Luminescence Cell-Based Dose Retest to Confirm Inhibitors of Cancer Stem Cells. [Related pubchem assays (depositor defined):AID2717, AID2721]; type: functional; conditions: Homo sapiens
Protein Wnt-3a = Protein Wnt-3a (Mus musculus, UniProt P27467); test: Wnt3a-driven reporter signaling inhibition, dose response, selectivity assay for Gli-SUFU antagonist project, Wnt-LIGHT cells, luminescence (AID 651570); type: functional; conditions: read-out: IC50_Mean;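 also: Wnt-LIGHT reporter cells stimulated with conditioned medium from Wnt3a-producing cells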
Nonstructural protein 1 = Nonstructural protein 1 (Influenza A virus, UniProt Q194T2); type: functional, Influenza A virus (A/California/07/2009(H1N1))
[3] = target: T2, Corticotropin-releasing factor receptor 2/Corticotropin-releasing factor-binding protein (Homo sapiens, UniProt P24387+Q13324); test: Dose Response confirmation of uHTS hits for small molecule antagonists of the CRF-binding protein and CRF-R2 receptor complex.; type: functional; conditions: read-out: IC50_Mean
T2 sequence (Q13324 whole entry): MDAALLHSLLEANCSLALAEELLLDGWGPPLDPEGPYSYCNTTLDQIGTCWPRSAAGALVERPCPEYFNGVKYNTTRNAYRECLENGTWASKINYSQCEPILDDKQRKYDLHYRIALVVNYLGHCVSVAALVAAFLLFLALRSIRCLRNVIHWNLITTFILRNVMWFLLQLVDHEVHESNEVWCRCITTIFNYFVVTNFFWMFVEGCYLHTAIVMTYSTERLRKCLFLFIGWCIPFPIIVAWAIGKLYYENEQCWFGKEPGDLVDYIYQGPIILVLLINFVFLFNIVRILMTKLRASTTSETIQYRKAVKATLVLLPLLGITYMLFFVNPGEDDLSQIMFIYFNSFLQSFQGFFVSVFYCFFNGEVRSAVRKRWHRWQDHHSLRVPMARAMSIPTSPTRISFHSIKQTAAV
T2 sequence (P24387 whole entry): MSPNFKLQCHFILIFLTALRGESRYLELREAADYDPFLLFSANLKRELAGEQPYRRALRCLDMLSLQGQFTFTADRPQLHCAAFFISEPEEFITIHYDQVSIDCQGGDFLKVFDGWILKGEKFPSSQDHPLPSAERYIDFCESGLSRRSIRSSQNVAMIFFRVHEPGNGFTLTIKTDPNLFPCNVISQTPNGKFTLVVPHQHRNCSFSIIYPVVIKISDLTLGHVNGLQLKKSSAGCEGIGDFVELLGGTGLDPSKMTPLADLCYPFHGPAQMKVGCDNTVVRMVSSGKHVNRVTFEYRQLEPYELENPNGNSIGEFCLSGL

[4] = target: T2, Corticotropin-releasing factor receptor 2/Corticotropin-releasing factor-binding protein; test: activators of CRF receptor 2 with binding protein – uHTS hits, confirmation (AID 602473); type: functional; conditions: read-out: EC50_Mean
[5] = CRF-BP/CRF-R2 complex antagonists, dose response, cell-based, uHTS hits, 384-well (AID 651639); type: functional, Homo sapiens; conditions: read-out: IC50_Mean
INS1 = test: beta cell apoptosis inhibitors, cytokine rescue, dose response, luminescence, retest (AID 449756); type: functional, cell-based; conditions: Rattus norvegicus;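 also: cell death triggered by IL-1 beta plus TNF-alpha plus IFN-gamma mixture; protective hits raise ATP signal compared with cytokine alone wells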
[6] = Shn3 3'UTR reporter inhibitors, dose response, cell-based, Clone20 osteoblasts, firefly luciferase, cherry-picked (AID 624132); type: functional;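 also: firefly luciferase luminescence from reporter carrying the Shn3 3'UTR in osteoblasts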
[7] = HepG2 cell cytotoxicity, dose response, cytotoxicity control for Shn3 inhibitor project, CellTiter-Glo, cherry-picked (AID 624134); type: functional, cell-based
[8] = control 3'UTR Renilla luciferase suppression, dose response, counter-screen for Shn3 inhibitor project, cell-based, Clone20-Shn3RL, cherry-picked (AID 624133); type: functional
Cytochrome P450 2C19 = Cytochrome P450 2C19 (Homo sapiens, UniProt P33261); test: Cytochrome panel assay with activity outcomes. Panel member name: p450-cyp2c19 Compounds with AC50 equal or less than 10 uM are considered active; type: functional; conditions: read-out: AC50
Cytochrome P450 3A4 = Cytochrome P450 3A4 (Homo sapiens, UniProt P08684);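 also: CYP3A4 tested as one member of a cytochrome P450 panel screen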
Cytochrome P450 2C9 = Cytochrome P450 2C9 (Homo sapiens, UniProt P11712)
Chain of Cytochrome P450 2C9 (P11712 whole entry): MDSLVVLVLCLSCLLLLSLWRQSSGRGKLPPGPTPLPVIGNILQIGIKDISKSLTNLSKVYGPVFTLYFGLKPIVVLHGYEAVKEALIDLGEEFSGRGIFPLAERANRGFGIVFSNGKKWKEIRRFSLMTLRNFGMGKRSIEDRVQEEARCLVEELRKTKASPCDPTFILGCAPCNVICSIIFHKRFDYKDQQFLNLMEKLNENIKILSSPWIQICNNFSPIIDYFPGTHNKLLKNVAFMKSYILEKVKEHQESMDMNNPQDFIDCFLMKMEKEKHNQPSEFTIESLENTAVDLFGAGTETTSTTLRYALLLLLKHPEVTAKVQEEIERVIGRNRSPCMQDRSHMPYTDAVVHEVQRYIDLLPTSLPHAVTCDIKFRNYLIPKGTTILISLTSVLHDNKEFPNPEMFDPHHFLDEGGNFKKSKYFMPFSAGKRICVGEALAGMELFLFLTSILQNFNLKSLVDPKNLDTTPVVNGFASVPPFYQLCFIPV

Chain of Protein Wnt-3a (P27467 whole entry): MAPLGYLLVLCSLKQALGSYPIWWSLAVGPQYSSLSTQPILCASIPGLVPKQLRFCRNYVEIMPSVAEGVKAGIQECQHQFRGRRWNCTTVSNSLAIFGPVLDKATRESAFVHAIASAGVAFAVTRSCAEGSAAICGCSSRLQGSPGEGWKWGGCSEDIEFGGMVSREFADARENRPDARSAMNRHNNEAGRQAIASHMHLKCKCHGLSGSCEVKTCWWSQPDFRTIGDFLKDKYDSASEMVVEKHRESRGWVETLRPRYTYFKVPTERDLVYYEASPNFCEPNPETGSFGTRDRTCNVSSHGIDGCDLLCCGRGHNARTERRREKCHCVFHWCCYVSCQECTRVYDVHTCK
Chain of Cytochrome P450 2C19 (P33261 whole entry): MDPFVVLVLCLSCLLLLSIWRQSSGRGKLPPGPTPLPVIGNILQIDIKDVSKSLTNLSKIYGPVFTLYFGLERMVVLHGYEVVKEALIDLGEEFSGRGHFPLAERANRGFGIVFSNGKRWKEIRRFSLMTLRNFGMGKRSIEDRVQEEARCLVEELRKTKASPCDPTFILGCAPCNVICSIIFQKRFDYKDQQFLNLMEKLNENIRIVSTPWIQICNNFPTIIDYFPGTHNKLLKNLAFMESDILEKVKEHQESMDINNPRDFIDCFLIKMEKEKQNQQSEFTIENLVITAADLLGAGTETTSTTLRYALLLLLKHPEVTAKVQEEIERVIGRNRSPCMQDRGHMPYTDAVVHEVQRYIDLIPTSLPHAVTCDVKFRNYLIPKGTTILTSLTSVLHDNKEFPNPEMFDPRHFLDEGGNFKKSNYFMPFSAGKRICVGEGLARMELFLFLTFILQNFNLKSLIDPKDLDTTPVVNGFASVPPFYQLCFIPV
Chain of Cytochrome P450 3A4 (P08684 whole entry): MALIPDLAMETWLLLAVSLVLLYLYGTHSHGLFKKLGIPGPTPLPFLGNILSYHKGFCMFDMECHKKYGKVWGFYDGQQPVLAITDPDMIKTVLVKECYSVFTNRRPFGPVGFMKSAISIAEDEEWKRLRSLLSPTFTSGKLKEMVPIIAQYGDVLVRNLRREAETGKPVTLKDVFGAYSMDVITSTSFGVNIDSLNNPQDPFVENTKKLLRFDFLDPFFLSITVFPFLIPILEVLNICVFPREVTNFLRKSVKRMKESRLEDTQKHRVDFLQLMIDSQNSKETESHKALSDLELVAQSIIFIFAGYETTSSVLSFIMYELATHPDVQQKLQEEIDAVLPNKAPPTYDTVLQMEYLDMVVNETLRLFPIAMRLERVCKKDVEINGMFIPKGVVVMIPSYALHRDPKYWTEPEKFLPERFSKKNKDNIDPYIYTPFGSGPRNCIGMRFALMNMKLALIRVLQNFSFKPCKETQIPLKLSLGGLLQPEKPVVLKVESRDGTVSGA
Chain of Nonstructural protein 1 (Q194T2 whole entry): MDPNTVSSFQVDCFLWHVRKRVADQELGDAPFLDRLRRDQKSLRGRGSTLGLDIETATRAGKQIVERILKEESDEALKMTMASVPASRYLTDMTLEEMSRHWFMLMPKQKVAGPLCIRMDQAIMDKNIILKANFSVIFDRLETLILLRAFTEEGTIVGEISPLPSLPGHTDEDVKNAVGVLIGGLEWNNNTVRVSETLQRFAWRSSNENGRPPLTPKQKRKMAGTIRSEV

Q: With `Cc1nc2c(C(=O)N3CCN(c4ccccn4)CC3)cnn2c(C)c1Cc1cccc(Cl)c1` as the molecule, how does the AC50 [1] read?
A: 3.39 µM (active)

Q: For `O=C(N[C@H]1C/C=C\C[C@@H](CC(=O)N(CCO)Cc2ccccc2)C(=O)NC[C@H](c2ccccc2)OC1=O)OCC1c2ccccc2-c2ccccc21`, which AC50 [2] is on record?
A: 2.24 µM (active)

Q: What about the IC50 (Protein Wnt-3a) of the same molecule?
A: 7.16 µM (active)

Q: For `CCc1nn(CCCC(=O)N(C)Cc2ccccc2)c(=O)c2cc3occc3n12`, which AC50 [1] is on record?
A: 4.73 µM (active)

Q: Which results are given for `CCOc1ccc(N/N=C2\C(=O)Nn3c2nc2c(c3=O)CCCC2)cc1`?
A: IC50 (Nonstructural protein 1): > 100 µM (active); IC50 [3]: 4.73 µM (active); EC50 [4]: > 53 µM (inactive); IC50 [5]: > 20 µM (inactive)

Q: Which AC50 (INS1) does the source give for `CCn1/c(=N\C(=O)CCS(=O)(=O)c2ccccc2)sc2cccc(OC)c21` here?
A: 5.08 µM (active)

Q: And the AC50 [6]?
A: 1.28 µM (active)

Q: And the AC50 [7]?
A: > 70 µM (inactive)

Q: And the AC50 [8]?
A: 3.05 µM (active)

Q: And the IC50 (Protein Wnt-3a)?
A: 0.803 µM (active)

Q: With `CN1c2ccc(-c3cccc(F)c3)cc2[C@H]2[C@H](CCN2C(=O)c2ccncc2)[C@H]1CO` as the molecule, how does the AC50 [1] read?
A: 0.816 µM (active)

Q: For `CCn1c(C)nc2c1C(=O)c1ccccc1C2=O`, which AC50 (Cytochrome P450 2C19) is on record?
A: 20 µM (inconclusive)

Q: And the AC50 (Cytochrome P450 3A4)?
A: 20 µM (inconclusive)

Q: And the AC50 (Cytochrome P450 2C9)?
A: inconclusive
